In patent US8592466B2, “Methods for treating conditions caused by higher-than-normal dopaminergic activity in basal ganglia” (Neuropill, Inc., priority 2008, dated 2013):
Where two headings read alike, the source gives them in different places.

Key:
[1] = RPR 102681 plasma concentration by LC/MS/MS; type: in vivo, humans; conditions: for concentration at 95 min / concentration at 215 min: human, plasma, read-out: mean plasma concentration (3-day average); for concentration at 95 min: 95 minutes post dose; for concentration at 215 min: 215 minutes post dose
Experimental: […] Pharmacokinetics (peak and trough levels) of RPR 102681 during treatment at a dose of 200 mg (day 13), 400 mg (day 20) and 800 mg (day 27) b.i.d. were determined.
The plasma concentration of RPR 102681 was determined with a validated liquid chromatography assay with mass spectrometric detection (LC/MS/MS) at the Department of Biopharmaceutical Sciences, University of California, San Francisco, Calif.
The sample plasma specimens for determining plasma concentration (354 RPR 102681 plasma specimens and 109 Prolactin plasma specimens) were frozen and packed in dry ice upon receipt by the Analytical Division/Drug Studies Unit at South San Francisco, Calif. These samples were kept frozen at approximately −20° C. until analyzed.
Human plasma samples (0.100 mL) were analyzed for RPR 102681 with an LC/MS/MS procedure utilizing a PE Sciex III system equipped with a BDS Hypersil C18 column (4.6×15 mm, 5 μm particle size), a mobile system consisting of acetonitrile:water:trifluoroacetic acid (70:30:0.06) (v/v) with 0.0006% (w/v) ammonium phosphate dibasic; mass spectrometric detection was accomplished with a sample inlet, heated nebulizer, positive ionization by Atmospheric Pressure Chemical Ionization (APCI) and mass scanning by Multiple Reaction Monitoring (MRM) analysis. Sample preparation consisted of precipitation of 0.100 mL of plasma with acetonitrile containing the internal standard (prednisolone acetate) prior to separation by LC/MS/MS. The linear range of the assay was 1.0 to 160 ng/mL, with a lower limit of quantitation of 1.0 ng/mL.
Standard curve and quality control (QC) samples were generated by spiking interference free human plasma samples with known amounts of RPR 102681 and internal standard (IS). These standard curve, assay, and QC samples were processed, then 40 μl aliquots were injected into the LC/MS/MS system for chromatographic separation and subsequent mass spectrometric detection. The peak area ratios of RPR 102681 to IS were calculated for each sample from the measured peak areas obtained by LC/MS/MS. Finally, spiked concentrations and RPR 102681 to IS peak area ratios of the standard curve samples were fit by 1/x weighted least squares linear regression to the equation for the best straight line (y=mx+b, where y=peak area ratio and x=RPR 102681 concentration), and drug concentration in assay sample were calculated by the equation from the RPR 102681 to IS peak area ratios obtained by LC/MS/MS.

DA release in striatum = assay: [11C]-raclopride PET binding potential; type: in vivo, humans
Experimental: The Positron Emission Tomography (PET) scans were performed at the PET Center of Johns Hopkins University at Johns Hopkins Hospital, Baltimore, Md. During the PET scans three plasma samples of RPR 102681 were obtained from each subject under different dosing to measure RPR 102681 plasma concentration.
Each subject was also studied using Magnetic Resonance Imaging (MRI). Each subject received an individual thermoplastic mask molded to their face to allow for repositioning and stabilizing of the head during the MRI procedure and PET scan later. Marks, which localized the anatomical structures of interest, were placed on the mask following the MRI scan. In particular, each subject received an MRI with a sagittal scout view to localize the anterior commissure-posterior commissure (AC-PC) line to allow standardized positioning across the subjects based on the anatomical landmarks. […]
[^11C]-raclopride PET scans were preformed on days 6, 13, 20 and 27. […] To measure the specific binding of tracer, binding potential (BP) images were generated by a simplified reference model with a linear regression algorithm (Using a reference tissue model with spatial constraint to quantify [^11C] Pittsburgh compound B PET for early diagnosis of Alzheimer's disease, Yun Zhou, Susan M. Resnick, Weiguo Ye, Hong Fan, Daniel P. Holt, William E. Klunk, Chester A. Mathis, Robert Dannals, and Dean F. Wonga, NeuroImage 36 (2007) 298-312). […]
Subjects received PET scans with [^11C]-raclopride at baseline after uneventful completion of screening cocaine infusions and assignment to RPR 102681 or placebo treatment and on the fifth day of each RPR 102681 dose level (days 13, 20 and 27). After six subjects had completed all four PET scans these subjects' PET scan data was analyzed without breaking the blind to determine whether or not the PET scans should have been administered to any additional subjects. […]

CC(C(=O)O)c1cccc(NC(=O)NCC(=O)N2C(C(=O)OC(C)(C)C)CSC2c2ccccc2F)c1 [RPR 102681, (2S)-2-{3-[3-({[(2R,4R)-4-tert-Butoxycarbonyl-2-(2-fluorophenyl)]-3-thiazolidinyl}carbonylmethyl)ureido]phenyl}propionic acid]
mean plasma concentration at 2-3.5 hours relative to 8-11 hours ([1]; 200 mg dose): approximately 19 times | mean plasma concentration at 2-3.5 hours relative to 8-11 hours ([1]; 400 mg dose): ~15 times | dose-proportionality of plasma concentration ([1]; 400 mg to 800 mg dose range, 95 and 215 minutes post-dose): Severe deviation from dose-proportionality | mean plasma concentration at 2-3.5 hours relative to 8-11 hours ([1]; 800 mg dose): ~8 times | least-squares mean of dose-normalized concentration ([1]; 95 minutes post-dose, day 13, 200 mg): 1.26 ng/mL | least-squares mean of dose-normalized concentration ([1]; 95 minutes post-dose, day 14, 200 mg): 1.12 ng/mL | least-squares mean of dose-normalized concentration ([1]; 95 minutes post-dose, day 15, 200 mg): 1.25 ng/mL | least-squares mean of dose-normalized concentration ([1]; 95 minutes post-dose, day 20, 400 mg): 1.36 ng/mL | least-squares mean of dose-normalized concentration ([1]; 95 minutes post-dose, day 21, 400 mg): 0.87 ng/mL | least-squares mean of dose-normalized concentration ([1]; 95 minutes post-dose, day 22, 400 mg): 1.05 ng/mL | least-squares mean of dose-normalized concentration ([1]; 95 minutes post-dose, day 27, 800 m): 0.78 ng/mL | least-squares mean of dose-normalized concentration ([1]; 95 minutes post-dose, day 28, 800 m): 0.58 ng/mL | least-squares mean of dose-normalized concentration ([1]; 95 minutes post-dose, day 29, 800 m): 0.43 ng/mL | least-squares mean of dose-normalized concentration ([1]; 215 minutes after dose, day 13, 200 mg): 0.70 ng/mL | least-squares mean of dose-normalized concentration ([1]; 215 minutes after dose, day 14, 200 mg): 0.78 ng/mL | least-squares mean of dose-normalized concentration ([1]; 215 minutes after dose, day 15, 200 mg): 0.62 ng/mL | least-squares mean of dose-normalized concentration ([1]; 215 minutes after dose, day 20, 400 mg): 0.58 ng/mL | least-squares mean of dose-normalized concentration ([1]; 215 minutes after dose, day 21, 400 mg): 0.54 ng/mL | least-squares mean of dose-normalized concentration ([1]; 215 minutes after dose, day 22, 400 mg): 0.66 ng/mL | least-squares mean of dose-normalized concentration ([1]; 215 minutes after dose, day 27, 800 mg): 0.42 ng/mL | least-squares mean of dose-normalized concentration ([1]; 215 minutes after dose, day 28, 800 mg): 0.39 ng/mL | least-squares mean of dose-normalized concentration ([1]; 215 minutes after dose, day 29, 800 mg): 0.33 ng/mL | concentration at 95 min ([1]; 200 mg b.i.d. oral): 0.242 µg/mL | concentration at 95 min ([1]; 400 mg b.i.d. oral): 0.422 µg/mL | concentration at 95 min ([1]; 800 mg b.i.d. oral): 0.441 µg/mL | concentration at 215 min ([1]; 200 mg b.i.d. oral): 0.14 µg/mL | concentration at 215 min ([1]; 400 mg b.i.d. oral): 0.255 µg/mL | concentration at 215 min ([1]; 800 mg b.i.d. oral): 0.285 µg/mL | change in [11C]-raclopride binding potential (BP) (DA release in striatum; Dosing Schedule A, caudate nucleus, putamen or ventral striatum): no statistically significant change | change in [11C]-raclopride binding potential (BP) (DA release in striatum; Dosing Schedule B, dose 60-90 minutes prior to PET scan, caudate nucleus and ventral striatum, P<0.001): significantly increased BP | dopamine release inferred from raclopride binding potential (DA release in striatum; humans, PET brain imaging): inhibited dopamine release
